According to ChEMBL document CHEMBL4190266, “Deconstruction - reconstruction approach to analyze the essential structural elements of tetrahydro-3-benzazepine-based antagonists of GluN2B subunit containing NMDA receptors” (Eur J Med Chem, 2017):

Experiments:
[1] = biological target: Sigma non-opioid intracellular receptor 1 (Cavia porcellus, UniProt Q60492)
Description: Displacement of [3H]-(+)-pentazocine from sigma1 receptor in guinea pig brain cortex membranes after 120 mins by microbeta scintillation counting method

[2] = Selectivity ratio of Ki for sigma2 receptor in rat liver membranes to Ki for recombinant human GluN1A/GluN2B receptor expressed in mouse L(tk-) cell membranes; type: cell-based
[3] = Selectivity ratio of Ki for sigma1 receptor in guinea pig brain cortex membranes to Ki for recombinant human GluN1A/GluN2B receptor expressed in mouse L(tk-) cell membranes; type: cell-based
[4] = biological target: T1, Sigma intracellular receptor 2 (Rattus norvegicus, UniProt Q5U3Y7); assay: Displacement of [3H]DTG from sigma2 receptor in rat liver membranes after 120 mins by microbeta scintillation counting method; type: cell membranes, Membrane
T1 sequence (Q5U3Y7 whole entry): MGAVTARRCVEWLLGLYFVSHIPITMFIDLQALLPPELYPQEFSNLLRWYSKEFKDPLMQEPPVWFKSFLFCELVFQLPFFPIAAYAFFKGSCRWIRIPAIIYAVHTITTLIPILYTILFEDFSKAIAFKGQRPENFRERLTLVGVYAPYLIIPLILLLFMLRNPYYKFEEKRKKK

[5] = Displacement of [3H]ifenprodil from recombinant human GluN1A/GluN2B receptor expressed in mouse L(tk-) cell membranes after 120 mins by microbeta scintillation counting method
[6] = n-Octanol-buffer distribution coefficient, log D of the compound at pH 7.4 by mass spectrometry based shake flask method; type: physicochemical
[7] = Antagonist activity at GluN1A/GluN2A receptor (unknown origin) expressed in Xenopus laevis oocytes assessed as inhibition of glutamate/glycine-induced channel current at 1 uM at -70 mV holding potential by two electrode voltage clamp method relative to control; type: cell-based; conditions: Homo sapiens
Homo sapiens = species: Homo sapiens; assay: Antagonist activity at glutamate/glycine-stimulated recombinant human GluN1A/GluN2B receptor expressed in mouse L(tk-) cells assessed as protection against receptor overstimulation-induced excitotoxicity at 10 to 100 uM preincubated for 30 mins followed by glutamate/glycine stimulation measured after 6 hrs by LDH release assay relative to control; type: cell-based
[8] = Selectivity ratio of Ki for PCP binding site of NMDA receptor in pig brain cortex membranes to Ki for recombinant human GluN1A/GluN2B receptor expressed in mouse L(tk-) cell membranes

Sequence of Sigma non-opioid intracellular receptor 1 (Q60492 whole entry): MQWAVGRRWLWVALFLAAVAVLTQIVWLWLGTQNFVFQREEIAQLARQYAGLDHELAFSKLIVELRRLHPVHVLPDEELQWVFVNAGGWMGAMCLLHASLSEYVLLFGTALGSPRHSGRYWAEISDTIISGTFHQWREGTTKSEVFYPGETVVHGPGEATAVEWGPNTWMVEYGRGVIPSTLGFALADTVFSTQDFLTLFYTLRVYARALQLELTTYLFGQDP

Compound | Ki [1] | Ratio Ki [2] | Ratio Ki [3] | Ki [4] | Ki [5] | logD [6] | inhibition [7] | inhibition (Homo sapiens) | Ratio Ki [8]
O=[N+]([O-])c1ccc2c(c1)C(O)CN(CCCCCc1ccccc1)CC2 (stereo not drawn) | 100 nM | 0.5 | 0.4 | 116 nM | 240 nM |  |  |  | 
Nc1ccc2c(c1)C(O)CN(CCCCCc1ccccc1)CC2 (stereo not drawn) | 260 nM | 0.9 | 2 | 110 nM | 130 nM |  |  |  | 
O=[N+]([O-])c1ccc2c(c1)C(O)CN(CCCCc1ccccc1)CC2 (stereo not drawn) | 621 nM | 0.7 | 2 | 220 nM | 300 nM | 3.82 |  |  | 
Nc1ccc2c(c1)C(O)CN(CCCCc1ccccc1)CC2 (stereo not drawn) | > 10000 nM | 1 | > 10 | 970 nM | 1000 nM | 1.58 |  |  | 
OC1CN(C2CCN(Cc3ccccc3)CC2)CCc2ccccc21 (stereo not drawn) | 3.5 nM | 6 | 0.6 | 34 nM | 6 nM |  | 13% | < 6% | 
c1ccc(CCCCCN2CCc3ccccc3CC2)cc1 | 48 nM | 1 | 0.4 | 170 nM | 110 nM |  |  |  | 
COc1ccc(C(=O)CCCN2CCc3ccccc3C(O)C2)cc1 (stereo not drawn) | > 10000 nM |  |  | 1100 nM | > 1000 nM |  |  |  | 
O=[N+]([O-])c1ccc2c(c1)C(O)CN(CCCc1ccccc1)CC2 (stereo not drawn) | 1300 nM | 3 | 12 | 300 nM | 110 nM |  |  |  | 
c1ccc(-c2ccc(CN3CCc4ccccc4CC3)cc2)cc1 | 16 nM | 2 | 0.2 | 120 nM | 75 nM |  |  |  | 
O=[N+]([O-])c1ccc2c(c1)C(O)CN(Cc1ccccc1)CC2 (stereo not drawn) | 320 nM |  | < 0.3 | 4600 nM | > 1000 nM |  |  |  | 
OC1CN(CCc2ccccc2)CCc2ccccc21 (stereo not drawn) | 1600 nM | 2 | 1 | 3200 nM |  |  |  |  | 
CC(C(O)c1ccc(O)cc1)N1CCC(Cc2ccccc2)CC1 (stereo not drawn) [IFENPRODIL] |  |  |  |  | 10 nM |  | 87% |  | 
O=C(CCCN1CCc2ccccc2C(O)C1)c1ccc(F)cc1 (stereo not drawn) | 1100 nM | 0.2 | 4 | 61 nM |  |  |  |  | 
OC1CN(Cc2ccc(-c3ccccc3)cc2)CCc2ccccc21 (stereo not drawn) | 230 nM | 4 | 1 | 760 nM | 210 nM |  |  |  | 
O=[N+]([O-])c1ccc2c(c1)C(O)CN(C1CCC(c3ccccc3)CC1)CC2 (mixture of isomers) | 360 nM | 2 | 23 | 24 nM | 16 nM |  | 4.8% | < 6% | 
OC(CN1CCC(Cc2ccc(F)cc2)CC1)c1ccc(Cl)cc1 (stereo not drawn) [ELIPRODIL] |  |  |  |  | 13 nM |  |  |  | 
O=C(c1ccccc1)N1CCC(N2CCc3ccccc3C(O)C2)CC1 (stereo not drawn) | 800 nM | 2 | 0.9 | 1400 nM | 890 nM |  |  |  | 
Oc1ccc2c(c1)CCN(CCCCc1ccccc1)CC2O (stereo not drawn) |  |  |  |  |  | 1.67 |  |  | 
c1ccc(CCCCN2CCc3ccccc3CC2)cc1 | 10 nM | 0.15 | 0.04 | 35 nM | 230 nM | 3.13 |  |  | 
O=[N+]([O-])c1ccc2c(c1)C(O)CN(CCCCOc1ccccc1)CC2 (stereo not drawn) | 1500 nM | 1 | 2 | 1000 nM | 770 nM |  |  |  | 
OC1CN(CCCCOc2ccccc2)CCc2ccccc21 (stereo not drawn) | > 10000 nM | 1 | > 41 | 280 nM | 250 nM |  |  |  | 
O=[N+]([O-])c1ccc2c(c1)C(O)CN(Cc1ccc(-c3ccccc3)cc1F)CC2 (stereo not drawn) | 2800 nM |  |  | 1400 nM | > 1000 nM |  |  |  | 
OC1CN(CCCCCc2ccccc2)CCc2ccccc21 (stereo not drawn) | 460 nM | 2 | 7 | 119 nM | 67 nM |  |  |  | 
OC1CN(CCCCc2ccccc2)CCc2ccccc21 (stereo not drawn) |  |  |  |  |  | 2.7 |  |  | 
OC1CN(C2CCC(c3ccccc3)CC2)CCc2ccccc21 (mixture of isomers) | 82 nM | 25 | 37 | 55 nM | 2.2 nM |  | 0.8% | < 6% | > 4500
O=[N+]([O-])c1ccc2c(c1)C(O)CN(CCc1ccccc1)CC2 (stereo not drawn) | 1800 nM | 6 | 1 | > 10000 nM | 1600 nM |  |  |  | 
